Earlier results in patent publication US4745233A, “Derivatives of 1,1,2,2-tetramethyl-1,2-bis-(2-fluoro-4-hydroxyphenyl)-ethane” (Asta-Werke Aktiengesellschaft, priority 1985, dated 1988).

Tests used:
[1] = molecular target: T1, oestrogen receptor (Bos taurus, UniProt P49884); conditions: known compound, literature
T1 sequence (P49884 1-596): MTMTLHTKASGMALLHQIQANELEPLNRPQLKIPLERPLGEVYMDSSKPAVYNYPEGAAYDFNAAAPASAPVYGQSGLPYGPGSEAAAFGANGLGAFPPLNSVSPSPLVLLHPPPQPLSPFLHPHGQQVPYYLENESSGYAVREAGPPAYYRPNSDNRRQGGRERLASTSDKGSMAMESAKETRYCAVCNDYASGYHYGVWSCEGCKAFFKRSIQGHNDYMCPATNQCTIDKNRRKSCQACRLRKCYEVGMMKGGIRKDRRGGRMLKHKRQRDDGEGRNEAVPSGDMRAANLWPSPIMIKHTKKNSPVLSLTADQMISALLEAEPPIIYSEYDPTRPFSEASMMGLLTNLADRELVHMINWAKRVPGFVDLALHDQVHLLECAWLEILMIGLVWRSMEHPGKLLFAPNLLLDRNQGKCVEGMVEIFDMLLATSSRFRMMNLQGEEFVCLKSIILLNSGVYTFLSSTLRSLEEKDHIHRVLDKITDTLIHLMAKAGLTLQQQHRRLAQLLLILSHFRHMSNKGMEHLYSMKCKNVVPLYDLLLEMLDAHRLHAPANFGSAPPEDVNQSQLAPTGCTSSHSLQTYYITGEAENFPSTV

[2] = test system: oestrone- or oestradiol-stimulated uterus growth; conditions: juvenile mice; known compound
[3] = test system: DMBA-induced mammary carcinomas; conditions: Sprague Dawley rats; known compound

Compound: CC(C)(c1ccc(O)cc1)C(C)(C)c1ccc(O)cc1 [1,1,2,2-tetramethyl-1,2-bis-(4-hydroxyphenyl)-ethane]
- relative binding affinity [1]: 3.6
- antioestrogen effect: inhibition of oestrone- or oestradiol-stimulated uterus growth [2]: strong effect as antioestrogen
- growth of DMBA-induced mammary carcinoma [3]: inhibits the growth
